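In this assay, cells in 96-well plates receive the compound at five concentrations for 48 hours. Endpoints are linearly interpolated between the surrounding concentrations. GI50 is the concentration that inhibits growth by half. TGI denotes the concentration required for complete inhibition of growth.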
Assays:
Test in all cases: NCI-60 cell line screen, 48 h
786-0 renal = test system: 786-0 renal
A498 renal = test system: A498 renal
A549 NSCLC = test system: A549 NSCLC
ACHN renal = test system: ACHN renal
BT-549 breast = test system: BT-549 breast
CAKI-1 renal = test system: CAKI-1 renal
CCRF-CEM leukemia = test system: CCRF-CEM leukemia
COLO 205 colon = test system: COLO 205 colon
DU-145 prostate = test system: DU-145 prostate
EKVX NSCLC = test system: EKVX NSCLC
HCC-2998 colon = test system: HCC-2998 colon
HCT-116 colon = test system: HCT-116 colon
HCT-15 colon = test system: HCT-15 colon
HL-60(TB) leukemia = test system: HL-60(TB) leukemia
HOP-62 NSCLC = test system: HOP-62 NSCLC
HOP-92 NSCLC = test system: HOP-92 NSCLC
HS 578T breast = test system: HS 578T breast
HT29 colon = test system: HT29 colon
IGROV1 ovarian = test system: IGROV1 ovarian
K-562 leukemia = test system: K-562 leukemia
KM12 colon = test system: KM12 colon
LOX IMVI melanoma = test system: LOX IMVI melanoma
M14 melanoma = test system: M14 melanoma
MALME-3M melanoma = test system: MALME-3M melanoma
MCF7 breast = test system: MCF7 breast
MDA-MB-231 breast = test system: MDA-MB-231 breast
MDA-MB-435 = test system: MDA-MB-435
MOLT-4 leukemia = test system: MOLT-4 leukemia
NCI-H226 lung = test system: NCI-H226 lung

CN(C)CCNc1c2c(c(NCCN(C)C)c3c(CO)c[nH]c13)C(=O)c1ccccc1C2=O
GI50 (786-0 renal): 3.38 µM
TGI (786-0 renal): 16.2 µM
GI50 (A498 renal): 18.1 µM
TGI (A498 renal): 34.7 µM
GI50 (A549 NSCLC): 3.41 µM
TGI (A549 NSCLC): > 37.6 µM
GI50 (ACHN renal): 1.92 µM
TGI (ACHN renal): 9.96 µM
GI50 (BT-549 breast): 8.23 µM
TGI (BT-549 breast): 23.5 µM
GI50 (CAKI-1 renal): 4.64 µM
TGI (CAKI-1 renal): 19.2 µM
GI50 (CCRF-CEM leukemia): 3.07 µM
TGI (CCRF-CEM leukemia): > 32.1 µM
GI50 (COLO 205 colon): 2.74 µM
TGI (COLO 205 colon): > 37.5 µM
GI50 (DU-145 prostate): 2.17 µM
TGI (DU-145 prostate): 12.7 µM
GI50 (EKVX NSCLC): 3.05 µM
TGI (EKVX NSCLC): 9.34 µM
GI50 (HCC-2998 colon): 1.43 µM
TGI (HCC-2998 colon): 5.46 µM
GI50 (HCT-116 colon): 0.721 µM
TGI (HCT-116 colon): 10.9 µM
GI50 (HCT-15 colon): 1.96 µM
TGI (HCT-15 colon): 10.6 µM
GI50 (HL-60(TB) leukemia): 29.9 µM
TGI (HL-60(TB) leukemia): > 100 µM
GI50 (HOP-62 NSCLC): 1.02 µM
TGI (HOP-62 NSCLC): 7.29 µM
GI50 (HOP-92 NSCLC): 2.89 µM
TGI (HOP-92 NSCLC): 13.1 µM
GI50 (HS 578T breast): 3.36 µM
TGI (HS 578T breast): 13.6 µM
GI50 (HT29 colon): 1.4 µM
TGI (HT29 colon): > 23.2 µM
GI50 (IGROV1 ovarian): 2.49 µM
TGI (IGROV1 ovarian): > 40.7 µM
GI50 (K-562 leukemia): 3.47 µM
TGI (K-562 leukemia): > 100 µM
GI50 (KM12 colon): 1.03 µM
TGI (KM12 colon): 5.73 µM
GI50 (LOX IMVI melanoma): 1.97 µM
TGI (LOX IMVI melanoma): 10 µM
GI50 (M14 melanoma): 2.04 µM
TGI (M14 melanoma): 4.57 µM
GI50 (MALME-3M melanoma): 2.4 µM
TGI (MALME-3M melanoma): 6.83 µM
GI50 (MCF7 breast): 1.97 µM
TGI (MCF7 breast): > 34.1 µM
GI50 (MDA-MB-231 breast): 2.29 µM
TGI (MDA-MB-231 breast): 10.7 µM
GI50 (MDA-MB-435): 4.56 µM
TGI (MDA-MB-435): 20.6 µM
GI50 (MOLT-4 leukemia): 0.371 µM
GI50 (NCI-H226 lung): 7.37 µM

From PubChem BioAssay (NCI)
